This is an account of results in patent publication US8772489B2, “Optically active 2-hydroxy tetrahydrothienopyridine derivatives, preparation method and use in manufacture of medicament thereof” (Jiangsu Vcare PharmaTech Co. Ltd., priority 2010, dated 2014).

SMILES strings stand for the structures. “And” between values parts separate entries of the source, which are not always exact repeats. Equal entries are not always repeated. Structures can show the parent of a compound that is named as a salt. Where two headings read alike, the source gives them in different places.

For one data set, the system named is platelet aggregation. The experiment in a line: animal or person. It is filed as in vivo. The following applies: Rattus norvegicus, read-out: Aggregation inhibition (%). An excerpt:
The positive control and the test compounds (prepared in the above examples) were formulated in 0.5% CMC-Na (carboxymethylcellulose sodium) into suspensions for administration to animals.
Animals: male SD rats, weighed about 250 g, and supplied by Shanghai Super-B&K Laboratory Animal Corp. Ltd. Animal certificate No.: 2008001605451, and license No.: SCXK (Hu); SCXK (Hu) 2008-0016.
Instruments: a centrifuge (80-2 bench top low-speed centrifuge), an automatic platelet aggregation tester (STELLEXLG-PAPER-I platelet coagulation/aggregation analyzer), and others.
Methods: the pharmacological activity test of the compounds of the present invention for platelet aggregation was performed following Born's turbidimetric method (Nature, 1962, 194(4832): 927). An agglomeration-promoting substance, adenosine diphosphate (ADP), was added to a platelet rich plasma (PRP), and stirred to allow platelets to aggregate. […] This experiment can be used to evaluate the platelet aggregation effect induced by the test compounds administrated in-vivo or in-vitro.
The PRP was adjusted with a platelet poor plasma (PPP) to maintain the platelet counts at […]. The PRP was taken into a test cup, and incubated at 37° C. for 10 min. Light transmission was adjusted to 0% with PRP and to 100% with PPP for each measurement. By using ADP (with a final concentration of 5 μM) as an inducer, the platelet aggregation percentages were measured through the turbidimetric method using a platelet aggregation tester, and statistically compared by t-test. The platelet aggregation inhibition was calculated by the equation: platelet aggregation inhibition (%)=[1−(aggregation percent in dosed tube/aggregation percent in control tube)]×100%.

The nature of data set [1]: Pharmacokinetics and bioavailability of Compound I-2 in rats (plasma Compound IV-1 by LC-MS/MS). It is filed as in vivo, rat. The following applies: for Concentration of Compound IV-1 in plasma, single animals / concentration at 0.08 h / concentration at 0.167 h / concentration at 0.5 h / concentration at 1 h / concentration at 2 h / concentration at 4 h / concentration at 6 h: intravenous injection 8 μmol/kg; for concentration at 0.08 h / concentration at 0.167 h / concentration at 0.5 h / concentration at 1 h / concentration at 2 h / concentration at 4 h / concentration at 6 h: 8 μmol/kg. From the text:
The rats were fasted overnight, but allowed free access to water.

Where [2] appears, read: male SD rats, oral gavage 3 mg/kg, blood after 2 hrs, ADP 5 μM.
Setting [3] is: male SD rats, oral gavage 10 mg/kg, blood after 2 hrs, ADP 5 μM.
Where [4] appears, read: SD rats, intravenous injection 8 μmol/kg (2.7 mg/kg), individual animal.

On to `COC(=O)C(c1ccccc1Cl)N1CCc2sc(OC(C)=O)cc2C1` (racemic) [I-2″, (R,S)-Methyl 2-(2-acetoxy-6,7-dihydrothieno[3,2-c]pyridin-5(4H)-yl)-2-(2-chlorophenyl)-acetate], for which, in the data set on platelet aggregation (setting [2]), the inhibition at 3 mg/kg is 43.9%. Also, the inhibition at 10 mg/kg in the data set with platelet aggregation (setting [3]) was 78.5%.

For the compound `COC(=O)C(c1ccccc1Cl)N1CCc2sc(OC(=O)N(C)C)cc2C1` (racemic) [I-18′, (R,S)-Methyl 2-(2-(N,N-dimethylcarbamoyloxy)-6,7-dihydrothieno[3,2-c]pyridin-5(4H)-yl)-2-(2-chlorophenyl)-acetate], in the data set with platelet aggregation (po, 2 h), the inhibition at 3 mg/kg was determined as 29.8%.

In the case of `COC(=O)[C@H](c1ccccc1Cl)N1CCc2sccc2C1` [Clopidogrel sulfate, reference compound], in the data set on platelet aggregation (po, 2 h), the inhibition at 3 mg/kg turned out to be 15.4% and the inhibition at 10 mg/kg stood at 79.6%.

Turning to `COC(=O)[C@H](c1ccccc1Cl)N1CCc2sc(OC(C)=O)cc2C1` [Compound I-2, (S)-Methyl 2-(2-acetoxy-6,7-dihydrothieno[3,2-c]pyridin-5(4H)-yl)-2-(2-chlorophenyl)-acetate], in the data set with platelet aggregation (setting [2]), the inhibition at 3 mg/kg was 69.9%. Besides, the inhibition at 10 mg/kg with platelet aggregation (setting [3]) is 83.5%.

As to `CCC(=O)Oc1cc2c(s1)CCN([C@H](C(=O)OC)c1ccccc1Cl)C2` [Compound I-3, (S)-Methyl 2-(2-propanoyloxy-6,7-dihydrothieno[3,2-c]pyridin-5(4H)-yl)-2-(2-chlorophenyl)-acetate], the inhibition at 3 mg/kg in the data set with platelet aggregation (setting [2]) came out at 38.4%.

`CCCC(=O)Oc1cc2c(s1)CCN([C@H](C(=O)OC)c1ccccc1Cl)C2` [Compound I-4, (S)-methyl 2-(2-butanoyloxy-6,7-dihydrothieno[3,2-c]pyridin-5 (4H)-yl)-2-(2-chlorophenyl)-acetate]: the inhibition at 3 mg/kg in the data set on platelet aggregation (setting [2]) stood at 46.2%.

With `COC(=O)[C@H](c1ccccc1Cl)N1CCc2sc(OC(=O)c3ccccc3OC(C)=O)cc2C1` [Compound I-5, (S)-methyl 2-(2-(2-acetoxybenzoyloxy)-6,7-dihydrothieno[3,2-c]pyridin-5(4H)-yl)-2-(2-chlorophenyl)-acetate], the inhibition at 3 mg/kg in the data set with platelet aggregation (po, 2 h) worked out at 55.1%.

As for `COC(=O)[C@H](c1ccccc1Cl)N1CCc2sc(OC(=O)C(C)(C)C)cc2C1` [Compound I-7, (S)-methyl 2-(2-pivaloyloxy-6,7-dihydrothieno[3,2-c]pyridin-5(4H)-yl)-2-(2-chlorophenyl)-acetate], the inhibition at 3 mg/kg in the data set on platelet aggregation (setting [2]) turned out to be 41.9%.

On to `COC(=O)[C@H](c1ccccc1Cl)N1CCc2sc(OC(=O)c3ccc(OC)cc3)cc2C1` [Compound I-11, (S)-Methyl 2-(2-(4-methoxybenzoyloxy)-6,7-dihydrothieno[3,2-c]pyridin-5(4H)-yl)-2-(2-chlorophenyl)-acetate], for which, in the data set on platelet aggregation (setting [2]), the inhibition at 3 mg/kg turned out to be 13.6%.

`COC(=O)[C@H](c1ccccc1Cl)N1CCC2SC(=O)C=C2C1` (stereo partly drawn) [IV-1, (2S)-Methyl 2-(2-oxo-7,7a-dihydrothieno[3,2-c]pyridin-5 (2H,4H,6H)-yl)-2-(2-chlorophenyl)-acetate]: the “AUC0-t of Compound IV-1, single animals” value in data set [1] (setting [4]) was 304 ng·h/mL and 229 ng·h/mL. Besides, in data set [1] (setting [4]), the “AUC0-∞ of Compound IV-1, single animals” value was 306 ng·h/mL and 229 ng·h/mL. Also, the “CLtot of Compound IV-1, single animals” value in data set [1] (setting [4]) is 147 mL/min/kg and 197 mL/min/kg. The “Cmax of Compound IV-1, single animals” value in data set [1] (setting [4]) is 785 ng/mL and 533 ng/mL. The “V2 of Compound IV-1, single animals” value in data set [1] (setting [4]) was 18.8 L/kg and 15.9 L/kg and 10.9 L/kg. Besides, the “t1/2 of Compound IV-1, single animals” value in data set [1] (setting [4]) is 78 min and 75 min and 38.6 min. For the same compound, the “V2 of Compound IV-1, Mean” value in data set [1] (SD rats, intravenous injection 8 μmol/kg (2.7 mg/kg), mean of 3) is on record as 15.2 L/kg. Besides, the “Concentration of Compound IV-1 in plasma, single animals” value in data set [1] (SD rats, 0.08 h, individual animal) was 785 ng/mL and 533 ng/mL; in data set [1] (SD rats, 0.167 h, individual animal), 417 ng/mL and 311 ng/mL; in data set [1] (SD rats, 0.5 h, individual animal), 129 ng/mL and 107 ng/mL; in data set [1] (SD rats, 1 h, individual animal), 49.3 ng/mL and 37.3 ng/mL; in data set [1] (SD rats, 2 h, individual animal) it was 9.06 ng/mL and 9.74 ng/mL; in data set [1] (SD rats, 4 h, individual animal), 2.87 ng/mL and 2.02 ng/mL. Further, the “Concentration of Compound IV-1 in plasma, single animals” value in data set [1] (SD rats, 6 h, individual animal) is 0.977 ng/mL and 1.06 ng/mL. The AUC(0-t) in data set [1] (male, SD, rat, plasma, iv, 2.7 mg/kg, intravenous injection 8 μmol/kg (2.7 mg/kg), individual animal, read-out: AUC0-t of Compound IV-1, single animals) worked out at 266 ng·h/mL; in data set [1] (male, Sprague-Dawley, rat, plasma, iv, 8 umol/kg, SD rats, intravenous injection 8 μmol/kg (2.7 mg/kg), mean of 3, read-out: AUC0-t of Compound IV-1, Mean) it was 266 ± 37.6 ng·h/mL. For the same compound, the AUC(0-inf) turned out to be 269 ng·h/mL in data set [1] (male, SD, rat, plasma, iv, 2.7 mg/kg, intravenous injection 8 μmol/kg (2.7 mg/kg), individual animal, read-out: AUC0-∞ of Compound IV-1, single animals) and 268 ± 38.3 ng·h/mL in data set [1] (male, Sprague-Dawley, rat, plasma, iv, 8 umol/kg, SD rats, intravenous injection 8 μmol/kg (2.7 mg/kg), mean of 3, read-out: AUC0-∞ of Compound IV-1, Mean). Also, the clearance in data set [1] (male, SD, rat, plasma, iv, 2.7 mg/kg, intravenous injection 8 μmol/kg (2.7 mg/kg), individual animal, read-out: CLtot of Compound IV-1, single animals (converted)) was 167 mL/min/kg; in data set [1] (male, SD, rat, plasma, iv, 2.7 mg/kg, intravenous injection 8 μmol/kg (2.7 mg/kg), mean of 3, read-out: CLtot of Compound IV-1, Mean (converted)), 170 mL/min/kg. In addition, the Cmax is 696 ng/mL in data set [1] (male, SD, rat, plasma, iv, 2.7 mg/kg, intravenous injection 8 μmol/kg (2.7 mg/kg), individual animal, read-out: Cmax of Compound IV-1, single animals) and 671 ± 128 ng/mL in data set [1] (male, Sprague-Dawley, rat, plasma, iv, 8 umol/kg, SD rats, intravenous injection 8 μmol/kg (2.7 mg/kg), mean of 3, read-out: Cmax of Compound IV-1, Mean). Moreover, the time of peak concentration (Tmax) in data set [1] (male, Sprague-Dawley, rat, plasma, 8 umol/kg, SD rats, intravenous injection 8 μmol/kg (2.7 mg/kg), mean of 3, read-out: Tmax of Compound IV-1, Mean) is 4.98 min; in data set [1] (male, rat, plasma, SD rats, intravenous injection 8 μmol/kg (2.7 mg/kg), individual animal, read-out: Tmax of Compound IV-1, single animals), 4.98 min. Further, in data set [1] (male, Sprague-Dawley, rat, plasma, iv, 8 umol/kg, SD rats, intravenous injection 8 μmol/kg (2.7 mg/kg), mean of 3, read-out: t1/2 of Compound IV-1, Mean (converted)), the half-life was 63.6 ± 21.8 min. Further, the concentration at 0.08 h in data set [1] (male, Sprague-Dawley, rat, plasma, iv, SD rats, 0.08 h, individual animal, read-out: Concentration of Compound IV-1 in plasma, single animals) is 696 ng/mL; in data set [1] (male, Sprague-Dawley, rat, plasma, iv, SD rats, 0.08 h, mean of 3, read-out: Concentration of Compound IV-1 in plasma, Mean), 671 ng/mL. In addition, the concentration at 0.167 h in data set [1] (male, Sprague-Dawley, rat, plasma, iv, SD rats, 0.167 h, individual animal, read-out: Concentration of Compound IV-1 in plasma, single animals) was found to be 317 ng/mL; in data set [1] (male, Sprague-Dawley, rat, plasma, iv, SD rats, 0.167 h, mean of 3, read-out: Concentration of Compound IV-1 in plasma, Mean), 348 ng/mL. Moreover, the concentration at 0.5 h in data set [1] (male, Sprague-Dawley, rat, plasma, iv, SD rats, 0.5 h, individual animal, read-out: Concentration of Compound IV-1 in plasma, single animals) was found to be 108 ng/mL; in data set [1] (male, Sprague-Dawley, rat, plasma, iv, SD rats, 0.5 h, mean of 3, read-out: Concentration of Compound IV-1 in plasma, Mean), 115 ng/mL. Besides, the concentration at 1 h in data set [1] (male, Sprague-Dawley, rat, plasma, iv, SD rats, 1 h, individual animal, read-out: Concentration of Compound IV-1 in plasma, single animals) was 51 ng/mL; in data set [1] (male, Sprague-Dawley, rat, plasma, iv, SD rats, 1 h, mean of 3, read-out: Concentration of Compound IV-1 in plasma, Mean), 45.9 ng/mL. Besides, the concentration at 2 h was determined as 10.9 ng/mL in data set [1] (male, Sprague-Dawley, rat, plasma, iv, SD rats, 2 h, individual animal, read-out: Concentration of Compound IV-1 in plasma, single animals) and 9.9 ng/mL in data set [1] (male, Sprague-Dawley, rat, plasma, iv, SD rats, 2 h, mean of 3, read-out: Concentration of Compound IV-1 in plasma, Mean). For the same compound, the concentration at 4 h in data set [1] (male, Sprague-Dawley, rat, plasma, iv, SD rats, 4 h, individual animal, read-out: Concentration of Compound IV-1 in plasma, single animals) amounted to 3.94 ng/mL; in data set [1] (male, Sprague-Dawley, rat, plasma, iv, SD rats, 4 h, mean of 3, read-out: Concentration of Compound IV-1 in plasma, Mean), 2.94 ng/mL. Further, the concentration at 6 h in data set [1] (male, Sprague-Dawley, rat, plasma, iv, SD rats, 6 h, individual animal, read-out: Concentration of Compound IV-1 in plasma, single animals) amounted to 1.29 ng/mL; in data set [1] (male, Sprague-Dawley, rat, plasma, iv, SD rats, 6 h, mean of 3, read-out: Concentration of Compound IV-1 in plasma, Mean), 1.11 ng/mL.

The inhibition is how much of the control response was suppressed. For orientation: Cmax means the maximum level reached in the sampled fluid or tissue. Usually Tmax stands for the time from dosing to the highest level.
